Assay results: patent US6355799B1, “Substituted benzene compounds, process for their preparation, and herbicidal and defoliant compositions containing them” (ISK Americas Incorporated, priority 1997, dated 2002)

What was measured:
Format in all cases: in vivo
[1] = tested on: upland rice (Oryza sp., var. Tebonnet, RICE); test: Pre-emerge test, crop safety; conditions: for Pre-emerge phytotoxicity rating (0-100), crop damage, RICE: rated 14 days after application, 0 = no damage, 100 = complete death; for phytotoxicity rating RICE: pre-emerge, 14 days after application, rating scale 0-100
Summary of the method: (§1)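 Compounds in acetone were track-sprayed at 187 l/ha, 15–1000 g ai/ha, onto sandy loam pots. Pre-emerge seeds were sown one day before spraying, with surface watering afterwards. Post-emerge plants were at the 2–3 leaf stage and sprayed with 0.25% v/v non-ionic surfactant. Injury was rated 0–100 at 14 days.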

[2] = tested on: field corn (Zea mays L., var. Dekalb 535, CORN); test: Pre-emerge test, crop safety; conditions: for Pre-emerge phytotoxicity rating (0-100), crop damage, CORN: rated 14 days after application, 0 = no damage, 100 = complete death; for phytotoxicity rating CORN: pre-emerge, 14 days after application, rating scale 0-100
Summary of the method: as §1

[3] = tested on: redroot pigweed (Amaranthus retroflexus, AMARE); test: Post-emerge test, greenhouse herbicide activity screening; conditions: post-emerge, 14 days after application
Summary of the method: (§2)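 Applied at 15–1000 g ai/ha from acetone in 187 l/ha spray volume. Post-emergence applications included 0.25% v/v non-ionic surfactant and reached plants sown 8–21 days before. Pre-emergence applications were incorporated by surface watering. Efficacy or crop damage was rated on a 0–100 scale after 14 days.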

[4] = tested on: large crabgrass (Digitaria sanguinalis, DIGSA); test: as above; conditions: post-emerge, 14 days after application, rating scale 0-100
Summary of the method: as §2

[5] = tested on: lambsquarters (Chenopodium album, CHEAL); test: as above; conditions: post-emerge, 14 days after application, rating scale 0-100
Summary of the method: as §2

[6] = tested on: ivyleaf morningglory (Ipomoea hederacea, IPOHE); test: as above; conditions: post-emerge, 14 days after application, rating scale 0-100
Summary of the method: as §2

[7] = tested on: johnsongrass (Sorghum halepense, SORHA); test: as above; conditions: post-emerge, 14 days after application, rating scale 0-100
Summary of the method: as §2

[8] = tested on: sicklepod (Cassia obtusifolia, CASOB); test: as above; conditions: post-emerge, 14 days after application, rating scale 0-100
Summary of the method: as §2

[9] = tested on: green foxtail (Setaria viridis, SETVI); test: as above; conditions: post-emerge, 14 days after application, rating scale 0-100
Summary of the method: as §2

[10] = tested on: velvetleaf (Abutilon theophrasti, ABUTH); test: as above; conditions: post-emerge, 14 days after application, rating scale 0-100
Summary of the method: as §2

[11] = tested on: barnyardgrass (Echinochloa crus-galli, ECHCG); test: as above; conditions: post-emerge, 14 days after application, rating scale 0-100
Summary of the method: as §2

[12] = tested on: large crabgrass (Digitaria sanguinalis, DIGSA); test: Pre-emerge test, greenhouse herbicide activity screening; conditions: for Pre-emerge Herbicidal Activity, phytotoxicity rating (0-100), DIGSA: rated 14 days after application, 0 = no damage, 100 = complete death; for phytotoxicity rating DIGSA: pre-emerge, 14 days after application, rating scale 0-100
Summary of the method: (§3)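 Herbicidal damage is scored 0 (none) to 100 (complete plant death) two weeks after a simulated field spray. Rates span 15–1000 g ai/ha, delivered in acetone at 187 l/ha. For post-emergence treatments, plants have 2–3 leaves and the spray carries 0.25% v/v non-ionic surfactant.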

[13] = tested on: lambsquarters (Chenopodium album, CHEAL); test: as above; conditions: for Pre-emerge Herbicidal Activity, phytotoxicity rating (0-100), CHEAL: rated 14 days after application, 0 = no damage, 100 = complete death; for phytotoxicity rating CHEAL: pre-emerge, 14 days after application, rating scale 0-100
Summary of the method: as §3

[14] = tested on: ivyleaf morningglory (Ipomoea hederacea, IPOHE); test: as above; conditions: for Pre-emerge Herbicidal Activity, phytotoxicity rating (0-100), IPOHE: rated 14 days after application, 0 = no damage, 100 = complete death; for phytotoxicity rating IPOHE: pre-emerge, 14 days after application, rating scale 0-100
Summary of the method: as §3

[15] = tested on: johnsongrass (Sorghum halepense, SORHA); test: as above; conditions: for Pre-emerge Herbicidal Activity, phytotoxicity rating (0-100), SORHA: rated 14 days after application, 0 = no damage, 100 = complete death; for phytotoxicity rating SORHA: pre-emerge, 14 days after application, rating scale 0-100
Summary of the method: as §3

[16] = tested on: sicklepod (Cassia obtusifolia, CASOB); test: as above; conditions: for Pre-emerge Herbicidal Activity, phytotoxicity rating (0-100), CASOB: rated 14 days after application, 0 = no damage, 100 = complete death; for phytotoxicity rating CASOB: pre-emerge, 14 days after application, rating scale 0-100
Summary of the method: as §3

[17] = tested on: green foxtail (Setaria viridis, SETVI); test: as above; conditions: for Pre-emerge Herbicidal Activity, phytotoxicity rating (0-100), SETVI: rated 14 days after application, 0 = no damage, 100 = complete death; for phytotoxicity rating SETVI: pre-emerge, 14 days after application, rating scale 0-100
Summary of the method: as §3

[18] = tested on: velvetleaf (Abutilon theophrasti, ABUTH); test: as above; conditions: for Pre-emerge Herbicidal Activity, phytotoxicity rating (0-100), ABUTH: rated 14 days after application, 0 = no damage, 100 = complete death; for phytotoxicity rating ABUTH: pre-emerge, 14 days after application, rating scale 0-100
Summary of the method: as §3

[19] = tested on: barnyardgrass (Echinochloa crus-galli, ECHCG); test: as above; conditions: for Pre-emerge Herbicidal Activity, phytotoxicity rating (0-100), ECHCG: rated 14 days after application, 0 = no damage, 100 = complete death; for phytotoxicity rating ECHCG: pre-emerge, 14 days after application, rating scale 0-100
Summary of the method: as §3

[20] = tested on: upland rice (Oryza sp., var. Tebonnet, RICE); test: Post-emerge test, crop safety; conditions: post-emerge, 14 days after application, rating scale 0-100
Summary of the method: as §3

[21] = tested on: field corn (Zea mays L., var. Dekalb 535, CORN); test: Post-emerge test, crop safety; conditions: post-emerge, 14 days after application, rating scale 0-100
Summary of the method: as §3

[22] = tested on: redroot pigweed (Amaranthus retroflexus, AMARE); test: Pre-emerge test, greenhouse herbicide activity screening; conditions: for Pre-emerge Herbicidal Activity, phytotoxicity rating (0-100), AMARE: rated 14 days after application, 0 = no damage, 100 = complete death; for phytotoxicity rating AMARE: pre-emerge, 14 days after application, rating scale 0-100
Summary of the method: as §3

[23] = 250 g ai/ha, rating scale 0-100

COc1c(Cl)cc(F)c(-n2c(=O)cc(C(F)(F)F)n(C)c2=O)c1NC(=O)C=Cc1ccc(Cl)cc1 [2-84]
Pre-emerge phytotoxicity rating (0-100), crop damage, RICE ([1]; 63 g ai/ha): 0
Pre-emerge phytotoxicity rating (0-100), crop damage, RICE ([1]; 250 g ai/ha): 0
Pre-emerge phytotoxicity rating (0-100), crop damage, CORN ([2]; 63 g ai/ha): 0
Pre-emerge phytotoxicity rating (0-100), crop damage, CORN ([2]; 250 g ai/ha): 0
phytotoxicity rating AMARE ([3]; 63 g ai/ha, rating scale 0-100): 80
phytotoxicity rating AMARE [3, 23]: 100
phytotoxicity rating DIGSA ([4]; 63 g ai/ha): 0
phytotoxicity rating DIGSA ([4]; 250 g ai/ha): 0
phytotoxicity rating CHEAL ([5]; 63 g ai/ha): 30
phytotoxicity rating CHEAL ([5]; 250 g ai/ha): 80
phytotoxicity rating IPOHE ([6]; 63 g ai/ha): 30
phytotoxicity rating IPOHE ([6]; 250 g ai/ha): 70
phytotoxicity rating SORHA ([7]; 63 g ai/ha): 0
phytotoxicity rating SORHA ([7]; 250 g ai/ha): 0
phytotoxicity rating CASOB ([8]; 63 g ai/ha): 20
phytotoxicity rating CASOB ([8]; 250 g ai/ha): 100
phytotoxicity rating SETVI ([9]; 63 g ai/ha): 30
phytotoxicity rating SETVI ([9]; 250 g ai/ha): 0
phytotoxicity rating ABUTH ([10]; 63 g ai/ha): 30
phytotoxicity rating ABUTH ([10]; 250 g ai/ha): 100
phytotoxicity rating ECHCG ([11]; 63 g ai/ha): 0
phytotoxicity rating ECHCG ([11]; 250 g ai/ha): 0
Pre-emerge Herbicidal Activity, phytotoxicity rating (0-100), DIGSA ([12]; 63 g ai/ha): 00
Pre-emerge Herbicidal Activity, phytotoxicity rating (0-100), DIGSA ([12]; 250 g ai/ha): 0
Pre-emerge Herbicidal Activity, phytotoxicity rating (0-100), CHEAL ([13]; 63 g ai/ha): 40
Pre-emerge Herbicidal Activity, phytotoxicity rating (0-100), CHEAL ([13]; 250 g ai/ha): 100
Pre-emerge Herbicidal Activity, phytotoxicity rating (0-100), IPOHE ([14]; 63 g ai/ha): 0
Pre-emerge Herbicidal Activity, phytotoxicity rating (0-100), IPOHE ([14]; 250 g ai/ha): 0
Pre-emerge Herbicidal Activity, phytotoxicity rating (0-100), SORHA ([15]; 63 g ai/ha): 0
Pre-emerge Herbicidal Activity, phytotoxicity rating (0-100), SORHA ([15]; 250 g ai/ha): 0
Pre-emerge Herbicidal Activity, phytotoxicity rating (0-100), CASOB ([16]; 63 g ai/ha): 0
Pre-emerge Herbicidal Activity, phytotoxicity rating (0-100), CASOB ([16]; 250 g ai/ha): 0
Pre-emerge Herbicidal Activity, phytotoxicity rating (0-100), SETVI ([17]; 63 g ai/ha): 0
Pre-emerge Herbicidal Activity, phytotoxicity rating (0-100), SETVI ([17]; 250 g ai/ha): 50
Pre-emerge Herbicidal Activity, phytotoxicity rating (0-100), ABUTH ([18]; 63 g ai/ha): 0
Pre-emerge Herbicidal Activity, phytotoxicity rating (0-100), ABUTH ([18]; 250 g ai/ha): 80
Pre-emerge Herbicidal Activity, phytotoxicity rating (0-100), ECHCG ([19]; 63 g ai/ha): 0
Pre-emerge Herbicidal Activity, phytotoxicity rating (0-100), ECHCG ([19]; 250 g ai/ha): 0
phytotoxicity rating RICE ([20]; 63 g ai/ha): 0
phytotoxicity rating RICE ([20]; 250 g ai/ha): 20
phytotoxicity rating CORN ([21]; 63 g ai/ha): 10
phytotoxicity rating CORN ([21]; 250 g ai/ha): 10
Pre-emerge Herbicidal Activity, phytotoxicity rating (0-100), AMARE ([22]; 63 g ai/ha): 80
Pre-emerge Herbicidal Activity, phytotoxicity rating (0-100), AMARE ([22]; 250 g ai/ha): 100

COc1c(Cl)cc(F)c(-n2c(=O)cc(C(F)(F)F)n(C)c2=O)c1SCCO [17-5]
phytotoxicity rating RICE ([1]; 63 g ai/ha): 0
phytotoxicity rating RICE ([1]; 250 g ai/ha): 10
phytotoxicity rating CORN ([2]; 63 g ai/ha): 0
phytotoxicity rating CORN ([2]; 250 g ai/ha): 0
Post-emerge Herbicidal Activity AMARE (phytotoxicity rating) ([3]; 63 g ai/ha, rating scale 0-100 (0 no damage, 100 complete death)): 10
Post-emerge Herbicidal Activity AMARE (phytotoxicity rating) [3, 23]: 40
Post-emerge Herbicidal Activity DIGSA (phytotoxicity rating) ([4]; 63 g ai/ha): 0
Post-emerge Herbicidal Activity DIGSA (phytotoxicity rating) ([4]; 250 g ai/ha): 0
Post-emerge Herbicidal Activity CHEAL (phytotoxicity rating) ([5]; 63 g ai/ha): 40
Post-emerge Herbicidal Activity CHEAL (phytotoxicity rating) ([5]; 250 g ai/ha): 80
Post-emerge Herbicidal Activity IPOHE (phytotoxicity rating) ([6]; 63 g ai/ha): 30
Post-emerge Herbicidal Activity IPOHE (phytotoxicity rating) ([6]; 250 g ai/ha): 70
Post-emerge Herbicidal Activity SORHA (phytotoxicity rating) ([7]; 63 g ai/ha): 0
Post-emerge Herbicidal Activity SORHA (phytotoxicity rating) ([7]; 250 g ai/ha): 0
Post-emerge Herbicidal Activity CASOB (phytotoxicity rating) ([8]; 63 g ai/ha): 10
Post-emerge Herbicidal Activity CASOB (phytotoxicity rating) ([8]; 250 g ai/ha): 20
Post-emerge Herbicidal Activity SETVI (phytotoxicity rating) ([9]; 63 g ai/ha): 0
Post-emerge Herbicidal Activity SETVI (phytotoxicity rating) ([9]; 250 g ai/ha): 0
Post-emerge Herbicidal Activity ABUTH (phytotoxicity rating) ([10]; 63 g ai/ha): 50
Post-emerge Herbicidal Activity ABUTH (phytotoxicity rating) ([10]; 250 g ai/ha): 80
Post-emerge Herbicidal Activity ECHCG (phytotoxicity rating) ([11]; 63 g ai/ha): 0
Post-emerge Herbicidal Activity ECHCG (phytotoxicity rating) ([11]; 250 g ai/ha): 0
phytotoxicity rating DIGSA ([12]; 63 g ai/ha): 0
phytotoxicity rating DIGSA ([12]; 250 g ai/ha): 60
phytotoxicity rating CHEAL ([13]; 63 g ai/ha): 90
phytotoxicity rating CHEAL ([13]; 250 g ai/ha): 100
phytotoxicity rating IPOHE ([14]; 63 g ai/ha): 30
phytotoxicity rating IPOHE ([14]; 250 g ai/ha): 35
phytotoxicity rating SORHA ([15]; 63 g ai/ha): 0
phytotoxicity rating SORHA ([15]; 250 g ai/ha): 20
phytotoxicity rating CASOB ([16]; 63 g ai/ha): 0
phytotoxicity rating CASOB ([16]; 250 g ai/ha): 30
phytotoxicity rating SETVI ([17]; 63 g ai/ha): 0
phytotoxicity rating SETVI ([17]; 250 g ai/ha): 50
phytotoxicity rating ABUTH ([18]; 63 g ai/ha): 60
phytotoxicity rating ABUTH ([18]; 250 g ai/ha): 100
phytotoxicity rating ECHCG ([19]; 63 g ai/ha): 0
phytotoxicity rating ECHCG ([19]; 250 g ai/ha): 0
Post-emerge Herbicidal Activity RICE (crop damage rating) ([20]; 63 g ai/ha): 0
Post-emerge Herbicidal Activity RICE (crop damage rating) ([20]; 250 g ai/ha): 0
Post-emerge Herbicidal Activity CORN (crop damage rating) ([21]; 63 g ai/ha): 0
Post-emerge Herbicidal Activity CORN (crop damage rating) ([21]; 250 g ai/ha): 10
phytotoxicity rating AMARE ([22]; 63 g ai/ha): 80
phytotoxicity rating AMARE ([22]; 250 g ai/ha): 100
